Patent US10017507B2, “Diaza-benzofluoranthrene compounds” (HARBIN PHARMACEUTICAL GROUP CO., LTD. GENERAL …, priority 2015, dated 2018)
pIC50: −log10 of the molar value.

Biological target: T1, PDE1A (Homo sapiens, UniProt P54750)
T1 construct: purchased SignalChem
Experiment: In vitro detection of phosphodiesterase (PDE): PDE1A enzyme activity by fluorescence polarization immunoassay
Format: biochemical
Settings: human-derived enzyme, cAMP or cGMP substrate; read-out: IC50s for PDE1
Procedure: Test 1: In Vitro Detection of Phosphodiesterase (PDE)
the enzyme activity of PDE1A was determined by detecting the production of AMP/GMP by fluorescence polarization immunoassay, wherein AlexaFluor 633 labeled AMP/GMP was used to replace AMP/GMP to bind with the antibody.
Reaction buffer: 10 mM Tris-HCl, pH 7.5, 5 mM magnesium chloride, 0.01% Brij 35, 1 mM DTT and 1% DMSO;
Enzyme substrate: […] cAMP or cGMP (Ca^2+-calmodulin acts as a cofactor of PDE1A)
Detection reagent: Transcreener® AMP2/GMP2 antibody; AMP2/GMP2 AlexaFluor 633 tracer.
Experimental Procedure and Method:
1. Human-derived enzyme (commercially available from SignalChem) to be tested and substrate were diluted with freshly prepared reaction buffer;
2. The enzyme solution (with a concentration of 3 pM) was added to the holes of the microplates;
3. A series of solutions of the compounds in 100% DMSO (with the desired concentrations) were added to the holes containing the enzyme solution by Echo550, and then the microplates were incubated for 10 minutes at room temperature;
4. The substrate solution was added to the holes containing the enzyme and compounds to start the reaction;
5. The microplates were incubated for 1 hour under room temperature and vibration;
6. The detection mixture (tracer and antibody in stop buffer) was added to stop the enzyme reaction, and the microplates were incubated for 90 minutes under vibration;
7. The equipment EnVision (PerkinElmer), Cy5 FP Ex FP 620, Em S-pol 688/P-pol 688, FP mirror D658fp/D688 was used to detect the reaction mixture, and Ex/Em 620/688 was used to detect the fluorescence polarization.
In the Excel table, the enzyme activity corresponding to the FP signal was found on the AMP/GMP standard curve by reference to the DMSO negative control, and then was converted to product concentration (nM). GraphPad Prism was used to analyze and calculate the IC50 values.

SMILES	pIC50
CC[C@@]12C=C(c3n[nH]c(=O)o3)n3c4c(c5ccccc53)CCN(CCC1)[C@H]42 [Example 16, 5-((4^1S,13aS)-13a-ethyl-2,3,4^1,5,6,13a-hexahydro-1H-indolo[3,2,1-de]pyrido[3,2,1-ij][1,5]naphthyridin-12-yl)-1,3,4-oxadiazol-2(3H)-one]	4.70 to 6.00
CC[C@@]12C=C(c3nc(C(C)(C)O)no3)n3c4c(c5ccccc53)CCN(CCC1)[C@H]42 [Example 37, 2-(5-((4^1S,13aS)-13a-ethyl-2,3,4^1,5,6,13a-hexahydro-1H-indolo[3,2,1-de]pyrido[3,2,1-ij][1,5]naphthyridin-12-yl)-1,2,4-oxadiazol-3-yl)-propan-2-ol]	4.70 to 6.00
CC[C@@]12C=C(c3nc(C)c(C4CC4)o3)n3c4c(c5ccccc53)CCN(CCC1)[C@H]42 [Example 58, 5-cyclopropyl-2-((4^1S,13aS)-13a-ethyl-2,3,4^1,5,6,13a-hexahydro-1H-indolo[3,2,1-de]pyrido[3,2,1-ij][1,5]naphthyridin-12-yl)-4-methyloxazole]	≥ 6.00
CC[C@@]12C=C(c3noc(=O)[nH]3)n3c4c(c5ccccc53)CCN(CCC1)[C@H]42 [Example 18, 3-((4^1S,13aS)-13a-ethyl-2,3,4^1,5,6,13a-hexahydro-1H-indolo[3,2,1-de]pyrido[3,2,1-ij][1,5]naphthyridin-12-yl)-1,2,4-oxadiazol-5 (4H)-one]	< 4.00
CC[C@@]12C=C(c3cncc(C)n3)n3c4c(c5ccccc53)CCN(CCC1)[C@H]42 [Example 10, (4^1S,13aS)-13a-ethyl-12-(6-methylpyrazin-2-yl)-2,3,4^1,5,6,13a-hexahydro-1H-indolo[3,2,1-de]pyrido[3,2,1-ij][1,5]naphthyridine]	4.70 to 6.00
CC[C@@]12C=C(c3nc(C)c(C)o3)n3c4c(c5ccc(S(=O)(=O)N(C)C)cc53)CCN(CCC1)[C@H]42 [Example 69, (4^1S,13aS)-12-(4,5-dimethyloxazol-2-yl)-13a-ethyl-N,N-dimethyl-2,3,4^1,5,6,13a-hexahydro-1H-indolo[3,2,1-de]pyrido[3,2,1-ij][1,5]naphthyridin-9-sulfonamide]	4.70 to 6.00
CC[C@@]12C=C(c3noc(C(F)(F)F)n3)n3c4c(c5ccccc53)CCN(CCC1)[C@H]42 [Example 21, 3-((4^1S,13aS)-13a-ethyl-2,3,4^1,5,6,13a-hexahydro-1H-indolo[3,2,1-de]pyrido[3,2,1-ij][1,5]naphthyridin-12-yl)-5-trifluoromethyl-1,2,4-oxadiazole]	< 4.00
CC[C@@]12C=C(c3nc(C)c(C)o3)n3c4c(c5c(S(=O)(=O)NC)cccc53)CCN(CCC1)[C@H]42 [Example 73, (4^1S,13aS)-12-(4,5-dimethyloxazol-2-yl)-13a-ethyl-N-methyl-2,3,4^1,5,6,13a-hexahydro-1H-indolo[3,2,1-de]pyrido[3,2,1-ij][1,5]naphthyridin-7-sulfonamide]	4.70 to 6.00
CC[C@@]12C=C(c3cccc(C)n3)n3c4c(c5ccccc53)CCN(CCC1)[C@H]42 [Example 12, (4^1S,13aS)-13a-ethyl-12-(6-methylpyridin-2-yl)-2,3,4^1,5,6,13a-hexahydro-1H-indolo[3,2,1-de]pyrido[3,2,1-ij][1,5]naphthyridine]	4.70 to 6.00
CC[C@@]12C=C(c3ccno3)n3c4c(c5ccccc53)CCN(CCC1)[C@H]42 [Example 45, 5-((4^1S,13aS)-13a-ethyl-2,3,4^1,5,6,13a-hexahydro-1H-indolo[3,2,1-de]pyrido[3,2,1-ij][1,5]naphthyridin-12-yl)isoxazole]	4.00 to 4.70
CC[C@@]12C=C(c3nc(C)c(C(N)=O)o3)n3c4c(c5ccccc53)CCN(CCC1)[C@H]42 [Example 62, 2-((4^1S,13aS)-13a-ethyl-2,3,4^1,5,6,13a-hexahydro-1H-indolo[3,2,1-de]pyrido[3,2,1-ij][1,5]naphthyridin-12-yl)-4-methyloxazole-5-carboxamide]	4.70 to 6.00
CC[C@@]12C=C(c3nc(C)c(C(=O)N(C)C)o3)n3c4c(c5ccccc53)CCN(CCC1)[C@H]42 [Example 65, 2-((4^1S,13aS)-13a-ethyl-2,3,4^1,5,6,13a-hexahydro-1H-indolo[3,2,1-de]pyrido[3,2,1-ij][1,5]naphthyridin-12-yl)-N,N,4-trimethyloxazole-5-carboxamide]	≥ 6.00
CC[C@@]12C=C(c3nc(C)no3)n3c4c(c5cc(S(=O)(=O)N(C)C)ccc53)CCN(CCC1)[C@H]42 [Example 80, (4^1S,13aS)-13a-ethyl-N,N-dimethyl-12-(3-methyl-1,2,4-oxadiazol-5-yl)-2,3,4^1,5,6,13a-hexahydro-1H-indolo[3,2,1-de]pyrido[3,2,1-ij][1,5]naphthyridin-8-sulfonamide]	4.00 to 4.70
CC[C@@]12C=C(c3ncc(C)o3)n3c4c(c5ccccc53)CCN(CCC1)[C@H]42 [Example 51, 2-((4^1S,13aS)-13a-ethyl-2,3,4^1,5,6,13a-hexahydro-1H-indolo[3,2,1-de]pyrido[3,2,1-ij][1,5]naphthyridin-12-yl)-5-methyloxazole]	4.70 to 6.00
CC[C@@]12C=C(c3cn4ccccc4n3)n3c4c(c5ccccc53)CCN(CCC1)[C@H]42 [Example 42, (4^1S,13aS)-13a-ethyl-12-(imidazo[1,2-a]pyridin-2-yl)-2,3,4^1,5,6,13a-hexahydro-1H-indolo[3,2,1-de]pyrido[3,2,1-ij][1,5]naphthyridine]	4.70 to 6.00
CC[C@@]12C=C(c3nc(C(F)F)no3)n3c4c(c5ccccc53)CCN(CCC1)[C@H]42 [Example 36, 3-Difluoromethyl-5-((4^1S,13aS)-13a-ethyl-2,3,4^1,5,6,13a-hexahydro-1H-indolo[3,2,1-de]pyrido[3,2,1-ij][1,5]naphthyridin-12-yl)-1,2,4-oxadiazole]	4.00 to 4.70
CC[C@@]12C=C(c3nc(C)c(C#N)o3)n3c4c(c5ccccc53)CCN(CCC1)[C@H]42 [Example 63, 2-((4^1S,13aS)-13a-ethyl-2,3,4^1,5,6,13a-hexahydro-1H-indolo[3,2,1-de]pyrido[3,2,1-ij][1,5]naphthyridin-12-yl)-4-methyloxazole-5-carbonitrile]	≥ 6.00
CC[C@@]12C=C(c3nc(C)c(C)o3)n3c4c(c5cc(S(=O)(=O)N(C)C)ccc53)CCN(CCC1)[C@H]42 [Example 71, (4^1S,13aS)-12-(4,5-dimethyloxazol-2-yl)-13a-ethyl-N,N-dimethyl-2,3,4^1,5,6,13a-hexahydro-1H-indolo[3,2,1-de]pyrido[3,2,1-ij][1,5]naphthyridin-8-sulfonamide]	4.70 to 6.00
CC[C@@]12C=C(c3nc(C)no3)n3c4c(c5c(S(=O)(=O)N(C)C)cccc53)CCN(CCC1)[C@H]42 [Example 83, (4^1S,13aS)-13a-ethyl-N,N-dimethyl-12-(3-methyl-1,2,4-oxadiazol-5-yl)-2,3,4^1,5,6,13a-hexahydro-1H-indolo[3,2,1-de]pyrido[3,2,1-ij][1,5]naphthyridin-7-sulfonamide]	4.00 to 4.70
CC[C@@]12C=C(c3nccc(C)n3)n3c4c(c5ccccc53)CCN(CCC1)[C@H]42 [Example 8, (4^1S,13aS)-13a-ethyl-12-(4-methylpyrimidin-2-yl)-2,3,4^1,5,6,13a-hexahydro-1H-indolo[3,2,1-de]pyrido[3,2,1-ij][1,5]naphthyridine]	4.00 to 4.70
CC[C@@]12C=C(c3nc(C(C)C)c(C)o3)n3c4c(c5ccccc53)CCN(CCC1)[C@H]42 [Example 57, 2-((4^1S,13aS)-13a-ethyl-2,3,4^1,5,6,13a-hexahydro-1H-indolo[3,2,1-de]pyrido[3,2,1-ij][1,5]naphthyridin-12-yl)-4-isopropyl-5-methyloxazole]	≥ 6.00
CC[C@@]12C=C(c3nc(C)c(C(=O)NC)o3)n3c4c(c5ccccc53)CCN(CCC1)[C@H]42 [Example 64, 2-((4^1S,13aS)-13a-ethyl-2,3,4^1,5,6,13a-hexahydro-1H-indolo[3,2,1-de]pyrido[3,2,1-ij][1,5]naphthyridin-12-yl)-N,4-dimethyloxazole-5-carboxamide]	≥ 6.00
CC[C@@]12C=C(c3nc(C)c(C(C)C)o3)n3c4c(c5ccccc53)CCN(CCC1)[C@H]42 [Example 54, 2-((4^1S,13aS)-13a-ethyl-2,3,4^1,5,6,13a-hexahydro-1H-indolo[3,2,1-de]pyrido[3,2,1-ij][1,5]naphthyridin-12-yl)-5-isopropyl-4-methyloxazole]	4.70 to 6.00
CC[C@@]12C=C(c3nc(C)no3)n3c4c(c5c(S(=O)(=O)NC)cccc53)CCN(CCC1)[C@H]42 [Example 82, (4^1S,13aS)-13a-ethyl-N-methyl-12-(3-methyl-1,2,4-oxadiazol-5-yl)-2,3,4^1,5,6,13a-hexahydro-1H-indolo[3,2,1-de]pyrido[3,2,1-ij][1,5]naphthyridin-7-sulfonamide]	4.00 to 4.70
CC[C@@]12C=C(c3noc(C(C)(C)O)n3)n3c4c(c5ccccc53)CCN(CCC1)[C@H]42 [Example 25, 2-(3-((4^1S,13aS)-13a-ethyl-2,3,4^1,5,6,13a-hexahydro-1H-indolo[3,2,1-de]pyrido[3,2,1-ij][1,5]naphthyridin-12-yl)-1,2,4-oxadiazol-5-yl)propan-2-ol]	4.70 to 6.00
